Consider six compounds from PubChem BioAssay (NCI).

Some test systems named below: UACC-62 melanoma; OVCAR-4 ovarian; DU-145 prostate; SNB-19 CNS; LOX IMVI melanoma; HOP-62 NSCLC; MDA-MB-231 breast; NCI-H522 lung; OVCAR-3 ovarian; NCI-H460 lung.
What all share (assay): DTP human tumour cell line panel, 48 h

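Each compound was tested at five concentrations against cells in 96-well plates for 48 hours. Abbreviation: GI50, concentration required for 50% inhibition of growth. TGI: total growth inhibition.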

`CCCN(Cc1ccc(F)cc1)c1ccc(CO)c(Cl)c1`: the GI50 was 0.167 µM in the experiment with UACC-62 melanoma; 0.4 µM in the experiment on OVCAR-4 ovarian; 13.3 µM with DU-145 prostate; 12.7 µM with SNB-19 CNS; 9.49 µM with LOX IMVI melanoma; 2.4 µM in the experiment on HOP-62 NSCLC. Moreover, the GI50 in the experiment with MDA-MB-231 breast was 13 µM; with NCI-H522 lung, 9.5 µM; in the experiment on OVCAR-3 ovarian it was 0.662 µM; with NCI-H460 lung, 0.359 µM. The TGI in the experiment with UACC-62 melanoma is 0.907 µM; with OVCAR-4 ovarian, 7.9 µM; with DU-145 prostate, 26.5 µM; in the experiment on SNB-19 CNS it was 26.8 µM; with LOX IMVI melanoma, 21.9 µM; with HOP-62 NSCLC, 17.1 µM. The TGI came out at 27.3 µM with MDA-MB-231 breast, 22.6 µM in the experiment with NCI-H522 lung, 4.02 µM with OVCAR-3 ovarian and 11.5 µM in the experiment with NCI-H460 lung.

Turning to `CC1Oc2cc3c(-c4c(O)cc(O)c5c(O)c6c(cc45)OC(C)C(C)C6=O)c(O)cc(O)c3c(O)c2C(=O)C1C` (stereo not given), the TGI turned out to be 1.34 µM in the experiment on UACC-62 melanoma; 4.98 µM in the experiment on OVCAR-4 ovarian; 10.7 µM in the experiment with DU-145 prostate; 1.16 µM in the experiment on SNB-19 CNS; 1.23 µM in the experiment with HOP-62 NSCLC; 0.378 µM in the experiment on MDA-MB-231 breast. The total growth inhibition concentration (TGI) in the experiment with NCI-H522 lung was determined as 1.63 µM; with OVCAR-3 ovarian, 0.816 µM; with NCI-H460 lung, 0.163 µM.

With `CCN(CC)CCOc1ccc(C(=C(C)c2ccc(Cl)cc2)c2ccc(OCCN(CC)CC)cc2)cc1`, the GI50 was 0.61 µM in the experiment on UACC-62 melanoma; 0.586 µM in the experiment with OVCAR-4 ovarian; 1.09 µM in the experiment with DU-145 prostate; 0.699 µM with SNB-19 CNS; 0.552 µM in the experiment with LOX IMVI melanoma; 0.995 µM in the experiment with HOP-62 NSCLC. The GI50 was 0.581 µM with MDA-MB-231 breast, 0.591 µM in the experiment with NCI-H522 lung, 0.643 µM with OVCAR-3 ovarian and 0.63 µM in the experiment on NCI-H460 lung. Further, the TGI with UACC-62 melanoma is 1.18 µM; in the experiment on OVCAR-4 ovarian, 1.32 µM; with DU-145 prostate, 3.47 µM; in the experiment on SNB-19 CNS, 1.56 µM; in the experiment on LOX IMVI melanoma it was 1.03 µM; with HOP-62 NSCLC, 2.91 µM. The TGI is 1.12 µM with MDA-MB-231 breast, 1.25 µM in the experiment on NCI-H522 lung, 1.36 µM in the experiment with OVCAR-3 ovarian and 1.18 µM with NCI-H460 lung.

For the compound `CCc1ccc(NC(=O)Nc2c[nH]c3ccccc23)cc1`, the GI50 in the experiment with UACC-62 melanoma was 31.5 µM; in the experiment with OVCAR-4 ovarian, 10.1 µM; in the experiment on DU-145 prostate it was above 34 µM; with SNB-19 CNS it was 22.7 µM; in the experiment with LOX IMVI melanoma it was 25.8 µM; with HOP-62 NSCLC, 16.7 µM. Further, the GI50 with MDA-MB-231 breast is 3.2 µM; with NCI-H522 lung, 1.18 µM; in the experiment with OVCAR-3 ovarian it was 2.47 µM; in the experiment on NCI-H460 lung it was 12.7 µM. The TGI was above 51.7 µM with UACC-62 melanoma; above 54.7 µM in the experiment with OVCAR-4 ovarian; above 51.5 µM with DU-145 prostate; above 58.3 µM in the experiment with SNB-19 CNS; above 50.2 µM in the experiment on LOX IMVI melanoma; above 58.8 µM in the experiment on HOP-62 NSCLC. Also, the TGI in the experiment on MDA-MB-231 breast is above 36.9 µM; in the experiment with NCI-H522 lung, 2.67 µM; in the experiment on OVCAR-3 ovarian it was above 32.2 µM; in the experiment with NCI-H460 lung it was above 49.6 µM.

Regarding `CCOC(=O)c1c2c(n(CC(C)C)c1C)-c1nc[nH]c1C(=O)C2=O`, the GI50 is 12.7 µM with OVCAR-4 ovarian; 16.1 µM in the experiment on DU-145 prostate; 16.4 µM in the experiment with SNB-19 CNS; 7.91 µM in the experiment with LOX IMVI melanoma; 19.1 µM in the experiment on HOP-62 NSCLC; 6.85 µM in the experiment with MDA-MB-231 breast. The GI50 with NCI-H522 lung is 15.7 µM; in the experiment with OVCAR-3 ovarian it was 13 µM; in the experiment with NCI-H460 lung, 16.5 µM. Also, the TGI came to 25.3 µM in the experiment on OVCAR-4 ovarian; 29.6 µM with DU-145 prostate; 30.1 µM with SNB-19 CNS; 20.5 µM in the experiment on LOX IMVI melanoma; 34.2 µM in the experiment on HOP-62 NSCLC; 20.1 µM in the experiment with MDA-MB-231 breast. Moreover, the TGI in the experiment with NCI-H522 lung turned out to be 29.4 µM; in the experiment with OVCAR-3 ovarian, 26.3 µM; with NCI-H460 lung, 30.1 µM.

In the case of `COc1cc(Cn2cc3c(c2)-c2oncc2CC3)cc(OC)c1OC`, the GI50 with UACC-62 melanoma was 0.0362 µM; in the experiment on OVCAR-4 ovarian it was 0.152 µM; with DU-145 prostate, 0.0412 µM; in the experiment on SNB-19 CNS, 0.0437 µM; in the experiment with LOX IMVI melanoma, 0.0716 µM; in the experiment with HOP-62 NSCLC, 0.0479 µM. The figures for the GI50 with MDA-MB-231 breast, with NCI-H522 lung and in the experiment with NCI-H460 lung were 0.0601 µM, 0.0398 µM and 0.034 µM, respectively. For the same compound, the TGI in the experiment on UACC-62 melanoma is above 81.7 µM; in the experiment with OVCAR-4 ovarian it was above 100 µM; in the experiment with DU-145 prostate it was above 100 µM; with SNB-19 CNS it was above 100 µM; with LOX IMVI melanoma, above 100 µM; in the experiment on HOP-62 NSCLC, above 100 µM. Besides, the TGI with MDA-MB-231 breast was above 100 µM; with NCI-H522 lung, 1.29 µM; in the experiment with NCI-H460 lung, 1.5 µM.

In general, GI50 refers to the concentration that inhibits growth by half. Usually TGI stands for the concentration at which net growth stops. A higher TGI goes with lower sensitivity of the cells.
